# Data published in patent publication US20130253449A1, “NORADRENERGIC AND SPECIFIC SEROTONERGIC ANTIDEPRESSANT-CONTAINING TRANSDERMAL PATCH” (priority 2010, published 2013).
# Assays:
# [1] = tested on: brain monoamine (NA, DA and 5-HT); assay: Measurement of brain monoamine level (microdialysis, prefrontal region) during 12-hour mirtazapine administration; format: in vivo, rat
# Protocol: Rats (male, body weight: 200 to 300 g, n=5) were anesthetized by inhalation of isoflurane, and then a cannula for long-term continuous administration was buried under the skin of each rat and a guide (microdialysis) was in the prefrontal region thereof. In 5 to 7 days after the guide insertion, a probe for measurement of monoamine in the brain was inserted into the prefrontal region, and via the microsyringe pump connected to the probe, a perfusate was perfused at a flow rate of 0.5 μL/min. For mirtazapine administration, a mirtazapine 3 mg/mL/kg solution was administered in a predetermined dose via the microsyringe pump, taking 12 hours. A Ringer' s solution was used as the perfusate, which was collected at intervals of 1 hour using a fraction collector.
# (§1) Monoamine was measured from the perfusate collected by the fraction collector, and mirtazapine was measured from the plasma sample through HPLC.
# [2] = Measurement of plasma mirtazapine level during 12-hour mirtazapine administration; format: in vivo; settings: rat, subcutaneous, 6 hours after start of administration, 3 mg/mL/kg over 12 hours, read-out: mean concentration of mirtazapine in rat plasma (mean±SEM)
# Protocol: Next, at the same dose mode and through the same administration route as above, mirtazapine (3 mg/mL/kg) was administered in a predetermined dose, taking 12 hours, and in 6 hours after the start, the blood was collected. The time at which the administration was started was referred to as the test start time. Heparin was added to the collected blood and then centrifuged, and the thus-separated plasma was the sample.
# as §1
# [3] = 18 hours after start of administration, mirtazapine 3 mg/mL/kg solution over 12 hours
compound,measurement,setting,value
CN1CCN2c3ncccc3Cc3ccccc3C2C1 (stereo not shown) [mirtazapine],NA and DA in rat prefrontal region,[1]; 1 hour after start of mirtazapine administration,increase in NA and DA was admitted
same,NA level in rat prefrontal region (mean±SEM),"[1]; 7 hours after start of administration, mirtazapine 3 mg/mL/kg solution over 12 hours, n=5",184.7±17.3%
same,DA level in rat prefrontal region,"[1]; 8 hours after start of administration, mirtazapine 3 mg/mL/kg solution over 12 hours, n=5",222.1±38.5%
same,DA level in rat prefrontal region,[1]; [3],159.2±15.6%
same,NA level in rat prefrontal region,[1]; [3],124.2±10.7
same,influence on 5-HT in rat prefrontal region,[1]; mirtazapine 3 mg/mL/kg solution over 12 hours,no influence on 5-HT was admitted
same,concentration at 6 h,[2],27.5 ± 3.5 ng/mL
